Source: patent US12590099B2, “Inhibitors of histone deacetylase useful for the treatment or prevention of HIV infection” (Merck Sharp & Dohme LLC, priority 2018, dated 2026)

How the values were obtained:
Format in all cases: biochemical
[1] = molecular target: T1, Recombinant human HDAC1 (Homo sapiens, UniProt Q13547); experiment: Human HDAC enzyme inhibitor Fluor-de-Lys assay, HDAC1; conditions: recombinant human HDAC1, Fluor-de-Lys assay
T1 construct: FLAG (C); made in house
Method in brief: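 Fluor-de-Lys format at room temperature (23° C.): compounds titrated 10-point, 1:3, preincubated with HDAC before substrate addition; HDAC1 run at 0.3 nM enzyme with 20 μM BML-KI104. Developer with excess HDAC inhibitor ends the reaction, and trypsin-liberated AMC fluorescence is the read-out.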

[2] = molecular target: T2, Recombinant human HDAC3/SMRT heterodimer (Homo sapiens, UniProt O15379); experiment: Human HDAC enzyme inhibitor Fluor-de-Lys assay, HDAC3/SMRT; conditions: recombinant human HDAC3/SMRT, Fluor-de-Lys assay
T2 construct: FLAG (C); made in house

[3] = molecular target: T3, HDAC6 (Homo sapiens, UniProt Q9UBN7); experiment: Human HDAC enzyme inhibitor Fluor-de-Lys assay, HDAC6; conditions: HDAC6, Fluor-de-Lys assay
T3 sequence (Q9UBN7 1-1215): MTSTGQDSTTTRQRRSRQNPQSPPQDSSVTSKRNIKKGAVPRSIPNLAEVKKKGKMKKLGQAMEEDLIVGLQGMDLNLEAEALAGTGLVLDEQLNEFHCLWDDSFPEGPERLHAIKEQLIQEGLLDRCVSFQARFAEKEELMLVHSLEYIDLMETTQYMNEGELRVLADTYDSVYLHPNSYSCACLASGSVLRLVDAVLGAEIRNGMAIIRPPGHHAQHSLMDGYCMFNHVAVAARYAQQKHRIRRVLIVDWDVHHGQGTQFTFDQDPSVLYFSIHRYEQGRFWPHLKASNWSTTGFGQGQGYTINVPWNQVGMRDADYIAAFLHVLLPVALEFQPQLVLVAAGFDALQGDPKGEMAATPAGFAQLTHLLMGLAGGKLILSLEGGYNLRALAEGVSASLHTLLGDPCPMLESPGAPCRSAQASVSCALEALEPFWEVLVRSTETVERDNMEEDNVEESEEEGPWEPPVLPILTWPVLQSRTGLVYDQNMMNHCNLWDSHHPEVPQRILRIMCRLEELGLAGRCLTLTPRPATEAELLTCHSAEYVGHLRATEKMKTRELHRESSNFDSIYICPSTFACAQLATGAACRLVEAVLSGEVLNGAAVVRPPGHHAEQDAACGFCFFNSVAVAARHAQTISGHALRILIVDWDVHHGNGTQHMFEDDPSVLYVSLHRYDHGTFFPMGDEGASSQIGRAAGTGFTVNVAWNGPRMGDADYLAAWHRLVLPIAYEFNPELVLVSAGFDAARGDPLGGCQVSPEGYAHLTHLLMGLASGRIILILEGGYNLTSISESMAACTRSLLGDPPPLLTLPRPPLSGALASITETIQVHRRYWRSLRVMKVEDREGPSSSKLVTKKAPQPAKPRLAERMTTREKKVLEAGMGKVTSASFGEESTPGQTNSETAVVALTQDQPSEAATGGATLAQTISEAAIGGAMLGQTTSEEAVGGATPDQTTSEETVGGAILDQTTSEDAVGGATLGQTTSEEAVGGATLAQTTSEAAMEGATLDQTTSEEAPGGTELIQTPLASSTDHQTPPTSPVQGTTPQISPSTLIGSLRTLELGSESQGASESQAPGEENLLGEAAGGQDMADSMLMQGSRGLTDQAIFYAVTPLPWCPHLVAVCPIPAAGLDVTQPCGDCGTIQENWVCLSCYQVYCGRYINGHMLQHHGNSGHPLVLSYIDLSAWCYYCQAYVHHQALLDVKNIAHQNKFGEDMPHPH

[4] = molecular target: T4, Recombinant human HDAC8 (Homo sapiens, UniProt Q9BY41); experiment: Human HDAC enzyme inhibitor Fluor-de-Lys assay, HDAC8; conditions: recombinant human HDAC8, Fluor-de-Lys assay
T4 construct: purchased Enzo Life Sciences BML-SE145-0100
T4 sequence (Q9BY41 1-377): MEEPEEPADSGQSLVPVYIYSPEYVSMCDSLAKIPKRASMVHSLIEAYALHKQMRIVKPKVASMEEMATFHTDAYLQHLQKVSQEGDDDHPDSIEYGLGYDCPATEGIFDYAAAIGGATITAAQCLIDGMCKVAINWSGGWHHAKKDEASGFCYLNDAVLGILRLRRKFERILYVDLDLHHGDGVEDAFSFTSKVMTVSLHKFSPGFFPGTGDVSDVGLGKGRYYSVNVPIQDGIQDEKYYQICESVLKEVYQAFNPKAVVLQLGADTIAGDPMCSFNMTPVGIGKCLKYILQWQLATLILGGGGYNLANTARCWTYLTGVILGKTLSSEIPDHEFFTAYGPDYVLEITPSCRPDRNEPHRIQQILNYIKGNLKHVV

T2 sequence (O15379 whole entry): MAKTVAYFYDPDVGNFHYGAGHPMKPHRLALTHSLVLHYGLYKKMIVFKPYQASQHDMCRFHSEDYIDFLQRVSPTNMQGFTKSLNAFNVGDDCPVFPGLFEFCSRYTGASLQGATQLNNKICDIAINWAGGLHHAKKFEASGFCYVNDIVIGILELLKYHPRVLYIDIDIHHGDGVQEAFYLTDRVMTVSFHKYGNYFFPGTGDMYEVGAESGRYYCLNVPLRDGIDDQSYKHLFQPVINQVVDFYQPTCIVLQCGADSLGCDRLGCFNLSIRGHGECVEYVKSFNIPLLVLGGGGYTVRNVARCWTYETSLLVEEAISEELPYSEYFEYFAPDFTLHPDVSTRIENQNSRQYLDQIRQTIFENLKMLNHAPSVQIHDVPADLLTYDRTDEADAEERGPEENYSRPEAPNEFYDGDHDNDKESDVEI
T2 sequence (Q9Y618 1-899 partner limits assumed): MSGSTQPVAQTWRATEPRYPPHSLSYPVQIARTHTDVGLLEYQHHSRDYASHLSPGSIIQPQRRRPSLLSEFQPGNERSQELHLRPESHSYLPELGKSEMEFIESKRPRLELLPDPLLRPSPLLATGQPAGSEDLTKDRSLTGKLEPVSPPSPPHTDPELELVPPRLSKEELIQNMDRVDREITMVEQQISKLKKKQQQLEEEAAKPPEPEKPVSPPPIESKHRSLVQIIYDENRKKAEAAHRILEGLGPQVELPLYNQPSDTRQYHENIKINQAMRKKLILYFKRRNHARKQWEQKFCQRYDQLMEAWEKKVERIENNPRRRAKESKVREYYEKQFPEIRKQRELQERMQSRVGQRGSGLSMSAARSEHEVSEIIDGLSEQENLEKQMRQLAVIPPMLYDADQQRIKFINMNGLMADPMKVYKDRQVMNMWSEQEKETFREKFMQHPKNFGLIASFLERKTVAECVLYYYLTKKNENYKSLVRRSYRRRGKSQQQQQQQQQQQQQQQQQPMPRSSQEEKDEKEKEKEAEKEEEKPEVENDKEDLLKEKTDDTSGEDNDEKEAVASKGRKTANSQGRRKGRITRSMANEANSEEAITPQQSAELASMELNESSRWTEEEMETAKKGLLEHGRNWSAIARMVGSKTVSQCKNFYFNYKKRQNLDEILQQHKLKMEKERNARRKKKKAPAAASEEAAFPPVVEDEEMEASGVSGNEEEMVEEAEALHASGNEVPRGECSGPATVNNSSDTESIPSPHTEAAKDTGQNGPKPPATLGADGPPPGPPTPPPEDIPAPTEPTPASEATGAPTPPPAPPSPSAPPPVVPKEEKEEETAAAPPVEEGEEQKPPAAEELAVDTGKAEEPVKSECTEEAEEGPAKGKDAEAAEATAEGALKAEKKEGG
T1 sequence (Q13547 whole entry): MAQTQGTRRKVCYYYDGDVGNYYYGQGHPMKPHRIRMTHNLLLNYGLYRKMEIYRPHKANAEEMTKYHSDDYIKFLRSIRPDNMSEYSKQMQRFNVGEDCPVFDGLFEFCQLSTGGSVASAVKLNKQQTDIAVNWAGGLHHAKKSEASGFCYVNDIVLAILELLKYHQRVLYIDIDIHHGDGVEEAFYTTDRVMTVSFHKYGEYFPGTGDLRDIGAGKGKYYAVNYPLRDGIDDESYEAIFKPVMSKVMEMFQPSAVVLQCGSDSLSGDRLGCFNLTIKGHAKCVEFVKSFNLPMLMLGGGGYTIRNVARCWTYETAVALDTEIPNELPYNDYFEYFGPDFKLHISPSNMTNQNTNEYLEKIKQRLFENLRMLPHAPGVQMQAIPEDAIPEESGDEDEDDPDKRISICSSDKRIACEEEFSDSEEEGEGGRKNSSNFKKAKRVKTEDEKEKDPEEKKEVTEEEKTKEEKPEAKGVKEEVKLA

## CCC(=O)CCCCC[C@H](NC(=O)CC1CC2(C1)CN(C(C)C)C2)c1ncc(-c2cc3ccccc3nc2OC)[nH]1 [Compound 273]
[1]
  IC50: < 1.5 nM
[2]
  IC50: < 1.5 nM
[3]
  IC50: 400 nM
[4]
  IC50: 1960 nM

## CCC(=O)CCCCC[C@H](NC(=O)C1(N)CC2(CN(C)C2)C1)c1ncc(-c2cc3ccccc3nc2OC)[nH]1 [Compound 276]
[1]
  IC50: 1.56 nM
[2]
  IC50: 1.57 nM
[3]
  IC50: 1280 nM
[4]
  IC50: 5000 nM

## CCC(=O)CCCCC[C@H](NC(=O)[C@H]1CC12CCN(C)CC2)c1ncc(-c2ccc(F)cc2)[nH]1 [Compound 280]
[1]
  IC50: 30 nM
[2]
  IC50: 10.6 nM
[3]
  IC50: 11100 nM
[4]
  IC50: 10800 nM

## CCC(=O)CCCCC[C@H](NC(=O)[C@H]1CC12CCN(C)CC2)c1ncc(-c2ccc(C(F)(F)F)cc2)[nH]1 [Compound 284]
[1]
  IC50: 18.6 nM
[2]
  IC50: 6.09 nM
[3]
  IC50: 13400 nM
[4]
  IC50: 15000 nM

## CCC(=O)CCCCC[C@H](NC(=O)[C@H]1CC12CCN(C)CC2)c1ncc(-c2ccc(F)cc2F)[nH]1 [Compound 289]
[1]
  IC50: 63.1 nM
[2]
  IC50: 21.7 nM
[3]
  IC50: 10400 nM
[4]
  IC50: 3750 nM

## CCC(=O)CCCCC[C@H](NC(=O)[C@H]1CC12CCN(C)CC2)c1ncc(-c2ccccc2F)[nH]1 [Compound 290]
[1]
  IC50: 15.4 nM
[2]
  IC50: 4.08 nM
[3]
  IC50: 5990 nM
[4]
  IC50: 5230 nM

## CCC(=O)CCCCC[C@H](NC(=O)CC1CC2(CNC2)C1)c1ncc(-c2ccccc2)[nH]1 [Compound 297]
[1]
  IC50: 27.9 nM
[2]
  IC50: 9.69 nM
[3]
  IC50: 8170 nM
[4]
  IC50: 8460 nM

## CCC(=O)CCCCC[C@@H](NC(=O)C1CCC2(CC1)CNC2)c1ncc(-c2ccccc2)[nH]1 [Compound 298]
[1]
  IC50: 36.5 nM
[2]
  IC50: 10.4 nM
[3]
  IC50: 5070 nM
[4]
  IC50: 1690 nM

## CCC(=O)CCCCC[C@H](NC(=O)C1CCC2(CC1)CNC2)c1nnc(-c2cc3ccccc3nc2OC)o1 [Compound 299]
[1]
  IC50: 12.2 nM
[2]
  IC50: 6.56 nM
[3]
  IC50: 2360 nM
[4]
  IC50: 27800 nM

## CCC(=O)CCCCC[C@H](NC(=O)CC1CC2(C1)CN(C(C)=O)C2)c1ncc(-c2ccccc2)[nH]1 [Compound 300, (S)-2-(2-acetyl-2-azaspiro[3.3]heptan-6-yl)-N-(7-oxo-1-(5-phenyl-1H-imidazol-2-yl)nonyl)acetamide]
[1]
  IC50: 199 nM
[2]
  IC50: 38.7 nM
[3]
  IC50: 23200 nM
[4]
  IC50: 11100 nM

## CCC(=O)CCCCC[C@H](NC(=O)CC1CC2(CNC2)C1)c1nnc(-c2cc3ccccc3nc2OC)o1 [Compound 301]
[1]
  IC50: 24.6 nM
[2]
  IC50: 15.8 nM
[3]
  IC50: 3480 nM
[4]
  IC50: 29500 nM

## CCC(=O)CCCCC[C@H](NC(=O)C1CC12CCNCC2)c1nnc(-c2cc3ccccc3nc2OC)o1 (stereo partly drawn) [Compound 303]
[1]
  IC50: 17.2 nM
[2]
  IC50: 10.5 nM
[3]
  IC50: 982 nM
[4]
  IC50: 29200 nM

## CCC(=O)CCCCC[C@H](NC(=O)CC1CC2(C1)CN(C)C2)c1ncc(-c2ccccc2)[nH]1 [Compound 307]
[1]
  IC50: 62.9 nM
[2]
  IC50: 16.9 nM
[3]
  IC50: 12100 nM
[4]
  IC50: 13500 nM

## CCC(=O)CCCCC[C@H](NC(=O)CC1CC2(C1)CN(C)C2)c1nnc(-c2cc3ccccc3nc2OC)o1 [Compound 308]
[1]
  IC50: 27.3 nM
[2]
  IC50: 27.4 nM
[3]
  IC50: 1280 nM
[4]
  IC50: > 45000 nM

## CCC(=O)CCCCC[C@@H](NC(=O)C1CCC2(CC1)CN(C)C2)c1ncc(-c2ccccc2)[nH]1 [Compound 310]
[1]
  IC50: 33 nM
[2]
  IC50: 10.4 nM
[3]
  IC50: 6050 nM
[4]
  IC50: 6500 nM

## CCC(=O)CCCCC[C@H](NC(=O)C1NC(=O)CC12CN(C)C2)c1ncc(-c2cc3ccccc3nc2OC)[nH]1 (stereo partly drawn) [Compound 317]
[1]
  IC50: 0.87 nM
[2]
  IC50: 0.84 nM
[3]
  IC50: 186 nM
[4]
  IC50: 4890 nM

## CCC(=O)CCCCC[C@H](NC(=O)CC1CC2(C1)CN(C)C2)c1ncc(-c2cc3ccccc3nc2O)[nH]1 [Compound 326]
[1]
  IC50: 3.27 nM
[2]
  IC50: 1.58 nM
[3]
  IC50: > 1500 nM
[4]
  IC50: > 4500 nM

## CCC(=O)CCCCC[C@H](NC(=O)[C@H]1CC12CCN(CC)CC2)c1ncc(-c2cnc3cc(C(F)(F)F)ccc3c2)[nH]1 [Compound 341]
[1]
  IC50: 0.42 nM
[2]
  IC50: 0.43 nM
[3]
  IC50: 8970 nM
[4]
  IC50: 11900 nM

## CCC(=O)CCCCC[C@H](NC(=O)[C@H]1CC12CCN(C)CC2)c1ncc(-c2ccc3ccc(C)nc3c2F)[nH]1 [Compound 354]
[1]
  IC50: 1.82 nM
[2]
  IC50: 2.18 nM
[3]
  IC50: 354 nM
[4]
  IC50: 798 nM

## CCC(=O)CCCCCC(NC(=O)C1CCC2(CC1)OC(=O)c1ccncc12)c1nnc(-c2cc3ccccc3nc2OC)o1 (stereo not drawn) [Compound 363]
[1]
  IC50: 85.5 nM
[2]
  IC50: 33.5 nM
[3]
  IC50: 2040 nM
[4]
  IC50: 25500 nM

## CCC(=O)CCCCCC(NC(=O)C1CCC2(CC1)OC(=O)c1cnccc12)c1nnc(-c2cc3ccccc3nc2OC)o1 (stereo not drawn) [Compound 364]
[1]
  IC50: 63 nM
[2]
  IC50: 21.8 nM
[3]
  IC50: 1990 nM
[4]
  IC50: 32100 nM
